Active and inactive are the calls of the source. No cut-off for these calls is given here.
How the values were obtained:
[1] = target: T1, CDK8/Cyclin C (Homo sapiens) (UniProt P49336+P24863); experiment: Hydrophobic-tagging degradation activity at CDK8/Cyclin C (unknown origin) assessed as protein degradation at 0.625 to 10 uM incubated for 48 hrs by Western blotting analysis; format: protein-complex assay; conditions: dose 0.625-10 µM
[2] = target: T2, Cyclin-dependent kinase 8 (Homo sapiens, UniProt P49336); experiment: Hydrophobic-tagging degradation activity at CDK8 in human MDA-MB-468 cells assessed as degradation of CDK8 incubated for 48 hrs by Western blotting analysis; format: cell-based
Cyclin-C = Cyclin-C (Homo sapiens, UniProt P24863); experiment: PROTAC activity at Cyclin C in human MDA-MB-468 cells assessed as degradation of Cyclin C incubated for 48 hrs by Western blotting analysis; format: cell-based
[3] = target: T1, CDK8/Cyclin C (Homo sapiens); experiment: Hydrophobic-tagging degradation activity at CDK8/Cyclin C in human HCT-116 cells assessed as protein degradation at 0.75 to 20 uM incubated for 48 hrs by Western blotting analysis; format: cell-based; conditions: dose 0.75-20 µM
[4] = target: Cyclin-dependent kinase 4 (Homo sapiens) (UniProt P11802); experiment: Hydrophobic-tagging degradation activity at CDK4 in human MDA-MB-468 cells assessed as degradation of CDK4 at 0.625 to 10 uM incubated for 24 hrs by Western blotting analysis; format: cell-based; conditions: dose 0.625-10 µM
[5] = target: Cyclin-dependent kinase 7 (Homo sapiens) (UniProt P50613); experiment: Hydrophobic-tagging degradation activity at CDK7 in human MDA-MB-468 cells assessed as degradation of CDK7 at 0.625 to 10 uM incubated for 24 hrs by Western blotting analysis; format: cell-based; conditions: dose 0.625-10 µM
[6] = target: Cyclin-dependent kinase 9 (Homo sapiens) (UniProt P50750); experiment: Hydrophobic-tagging degradation activity at CDK9 in human MDA-MB-468 cells assessed as degradation of CDK9 at 0.625 to 10 uM incubated for 24 hrs by Western blotting analysis; format: cell-based; conditions: dose 0.625-10 µM
[7] = target: Cyclin-dependent kinase 12 (Homo sapiens) (UniProt Q9NYV4); experiment: PROTAC activity at CDK12 in human MDA-MB-468 cells assessed as degradation of CDK12 at 0.625 to 10 uM incubated for 24 hrs by Western blotting analysis; format: cell-based; conditions: dose 0.625-10 µM
[8] = target: Cyclin-dependent kinase 1 (Homo sapiens) (UniProt P06493); experiment: Hydrophobic-tagging degradation activity at CDK1 in human MDA-MB-468 cells assessed as degradation of CDK1 at 10 uM incubated for 24 hrs by Western blotting analysis; format: cell-based
Cyclin-A2 (Homo sapiens) = Cyclin-A2 (Homo sapiens) (UniProt P20248); experiment: PROTAC activity at Cyclin A2 in human MDA-MB-468 cells assessed as degradation of Cyclin A2 at 0.625 to 10 uM incubated for 24 hrs by Western blotting analysis; format: cell-based; conditions: dose 0.625-10 µM
Cyclin-H (Homo sapiens) = Cyclin-H (Homo sapiens) (UniProt P51946); experiment: PROTAC activity at Cyclin H in human MDA-MB-468 cells assessed as degradation of Cyclin H at 0.625 to 10 uM incubated for 24 hrs by Western blotting analysis; format: cell-based; conditions: dose 0.625-10 µM
Cyclin-K (Homo sapiens) = Cyclin-K (Homo sapiens) (UniProt O75909); experiment: PROTAC activity at Cyclin K in human MDA-MB-468 cells assessed as degradation of Cyclin K at 0.625 to 10 uM incubated for 24 hrs by Western blotting analysis; format: cell-based; conditions: dose 0.625-10 µM
Cyclin-T1 (Homo sapiens) = Cyclin-T1 (Homo sapiens) (UniProt O60563); experiment: PROTAC activity at Cyclin T1 in human MDA-MB-468 cells assessed as degradation of Cyclin T1 at 0.625 to 10 uM incubated for 24 hrs by Western blotting analysis; format: cell-based; conditions: dose 0.625-10 µM
Cyclin-C (Homo sapiens) = Cyclin-C (Homo sapiens) (UniProt P24863); experiment: PROTAC activity at Cyclin C in human MDA-MB-468 cells assessed as degradation of Cyclin C at 0.625 to 10 uM incubated for 24 hrs by Western blotting analysis; format: cell-based; conditions: dose 0.625-10 µM
[9] = target: Cyclin-dependent kinase 1 (Homo sapiens) (UniProt P06493); experiment: Hydrophobic-tagging degradation activity at CDK1 in human MDA-MB-468 cells assessed as downregulation of CDK1 mRNA level at 1.1 to 10 uM incubated for 24 hrs by RT-qPCR analysis; format: cell-based; conditions: dose 1.1-10 µM
[10] = target: T1, CDK8/Cyclin C (Homo sapiens); experiment: Hydrophobic-tagging degradation activity at CDK8/Cyclin C in human MDA-MB-468 cells assessed as protein degradation at 3 uM incubated for 24 hrs in presence of 17-AAG by Western blotting analysis; format: cell-based
MDA-MB-231 [11] = experiment: Antiproliferative activity against human MDA-MB-231 cells assessed as reduction in cell viability incubated for 4 days by Celltiter glo luminescent assay; format: functional, cell-based; conditions: time 4.0 day
HCT-116 = experiment: Antiproliferative activity against human HCT-116 cells assessed as reduction in cell viability incubated for 4 days by Celltiter glo luminescent assay; format: functional, cell-based; conditions: time 4.0 day
MDA-MB-468 [12] = experiment: Inhibition of colony formation in human MDA-MB-468 cells assessed as reduction in cell colony number at 1.25 to 20 uM incubated for 3 days by crystal violet staining based assay; format: functional; conditions: dose 1.25-20 µM, time 3.0 day
MDA-MB-468 [13] = experiment: Inhibition of colony formation in human MDA-MB-468 cells assessed as reduction in cell colony size at 1.25 to 20 uM incubated for 3 days by crystal violet staining based assay; format: functional; conditions: dose 1.25-20 µM, time 3.0 day
[14] = target: T1, CDK8/Cyclin C (Homo sapiens); experiment: Hydrophobic-tagging degradation activity at CDK8/Cyclin C in human MDA-MB-468 cells assessed as downregulation of C-terminal RNA polymerase II phosphorylation at serine 2 at 2 to 8 uM incubated for 24 hrs by Western blotting analysis; format: cell-based; conditions: dose 2-8 µM
[15] = target: T1, CDK8/Cyclin C (Homo sapiens); experiment: Hydrophobic-tagging degradation activity at CDK8/Cyclin C in human MDA-MB-468 cells assessed as downregulation of […] phosphorylation at Tyr701 residue at 2 to 8 uM incubated for 24 hrs by Western blotting analysis; format: cell-based; conditions: dose 2-8 µM
[16] = target: T1, CDK8/Cyclin C (Homo sapiens); experiment: Hydrophobic-tagging degradation activity at CDK8/Cyclin C in human MDA-MB-468 cells assessed as downregulation of STAT1 phosphorylation at Ser727 residue at 4 uM incubated for 24 hrs by Western blotting analysis; format: cell-based
[17] = target: T1, CDK8/Cyclin C (Homo sapiens); experiment: Hydrophobic-tagging degradation activity at CDK8/Cyclin C in human MDA-MB-468 cells assessed as effect on mRNA expression level at 4 uM incubated for 24 hrs by […] analysis; format: cell-based
[18] = target: T1, CDK8/Cyclin C (Homo sapiens); experiment: Hydrophobic-tagging degradation activity at CDK8/Cyclin C in human MDA-MB-468 cells assessed as downregulation of MYC gene expression level at 4 uM incubated for 24 hrs by qPT-PCR analysis; format: cell-based
[19] = target: T1, CDK8/Cyclin C (Homo sapiens); experiment: Hydrophobic-tagging degradation activity at CDK8/Cyclin C in human MDA-MB-468 cells assessed as downregulation of d EAPP expression level at 4 uM incubated for 24 hrs by proteomic analysis; format: cell-based
[20] = target: T2, Cyclin-dependent kinase 8; experiment: Hydrophobic-tagging degradation activity at CDK8 in human MDA-MB-468 cells assessed as downregulation of EAPP protein expression at 5 uM incubated for 12 hrs by DIA-based proteomic analysis; format: cell-based
[21] = target: T2, Cyclin-dependent kinase 8; experiment: Hydrophobic-tagging degradation activity at CDK8 in human MDA-MB-468 cells assessed as downregulation of SMAD2 protein expression at 5 uM incubated for 12 hrs by DIA-based proteomic analysis; format: cell-based
MDA-MB-231 [22] = experiment: Antiproliferative activity against human MDA-MB-231 cells assessed as inhibition of cell proliferation incubated for 4 days by Celltiter glo luminescent assay; format: functional, cell-based; conditions: MDA-MB-231, 96 h

T2 sequence (P49336 whole entry): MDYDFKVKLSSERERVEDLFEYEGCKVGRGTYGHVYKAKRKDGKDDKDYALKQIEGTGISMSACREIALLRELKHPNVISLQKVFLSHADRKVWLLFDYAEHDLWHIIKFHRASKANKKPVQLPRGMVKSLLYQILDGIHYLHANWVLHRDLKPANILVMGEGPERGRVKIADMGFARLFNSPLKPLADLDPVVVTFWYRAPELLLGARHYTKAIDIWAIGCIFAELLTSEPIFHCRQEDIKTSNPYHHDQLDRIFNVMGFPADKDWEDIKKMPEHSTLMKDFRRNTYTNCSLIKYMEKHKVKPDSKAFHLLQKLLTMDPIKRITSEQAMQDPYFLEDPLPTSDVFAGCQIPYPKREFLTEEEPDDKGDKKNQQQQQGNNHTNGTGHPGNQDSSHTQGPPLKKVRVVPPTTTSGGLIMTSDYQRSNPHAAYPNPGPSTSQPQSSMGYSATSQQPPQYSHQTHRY
Cyclin-dependent kinase 1 (Homo sapiens), sequence (P06493 whole entry, looked up): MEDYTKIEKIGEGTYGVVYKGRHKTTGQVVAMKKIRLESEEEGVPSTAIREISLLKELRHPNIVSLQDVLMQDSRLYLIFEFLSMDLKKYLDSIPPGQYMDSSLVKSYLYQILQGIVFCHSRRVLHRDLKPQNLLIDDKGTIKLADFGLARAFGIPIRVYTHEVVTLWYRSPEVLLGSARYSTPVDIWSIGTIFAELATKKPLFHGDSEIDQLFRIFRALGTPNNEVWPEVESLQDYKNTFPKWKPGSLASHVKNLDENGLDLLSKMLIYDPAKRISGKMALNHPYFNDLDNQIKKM
Cyclin-K (Homo sapiens), sequence (O75909 whole entry): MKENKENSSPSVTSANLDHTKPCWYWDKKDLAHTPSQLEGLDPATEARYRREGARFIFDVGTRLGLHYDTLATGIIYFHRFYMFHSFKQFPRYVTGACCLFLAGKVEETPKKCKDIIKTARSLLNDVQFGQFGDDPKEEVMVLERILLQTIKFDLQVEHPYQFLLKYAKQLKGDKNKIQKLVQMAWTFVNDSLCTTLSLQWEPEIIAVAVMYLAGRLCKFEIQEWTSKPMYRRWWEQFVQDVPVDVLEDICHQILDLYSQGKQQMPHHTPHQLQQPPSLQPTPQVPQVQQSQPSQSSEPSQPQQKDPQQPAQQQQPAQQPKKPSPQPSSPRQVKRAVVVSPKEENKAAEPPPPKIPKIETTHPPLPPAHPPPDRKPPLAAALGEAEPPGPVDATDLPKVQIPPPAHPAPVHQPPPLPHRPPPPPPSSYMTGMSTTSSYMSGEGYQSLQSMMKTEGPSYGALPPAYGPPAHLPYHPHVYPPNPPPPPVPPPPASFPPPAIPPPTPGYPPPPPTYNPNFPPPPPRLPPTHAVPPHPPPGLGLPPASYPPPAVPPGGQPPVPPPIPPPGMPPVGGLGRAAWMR
Cyclin-dependent kinase 4 (Homo sapiens), sequence (P11802 whole entry): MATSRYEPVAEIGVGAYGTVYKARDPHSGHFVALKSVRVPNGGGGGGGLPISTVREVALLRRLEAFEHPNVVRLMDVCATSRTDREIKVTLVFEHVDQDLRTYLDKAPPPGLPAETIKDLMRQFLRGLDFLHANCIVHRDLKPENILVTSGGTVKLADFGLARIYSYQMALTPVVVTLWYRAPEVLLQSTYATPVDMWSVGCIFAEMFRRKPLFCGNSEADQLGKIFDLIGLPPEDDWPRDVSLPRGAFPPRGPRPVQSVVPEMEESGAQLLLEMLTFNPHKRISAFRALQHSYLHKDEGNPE
Cyclin-T1 (Homo sapiens), sequence (O60563 whole entry): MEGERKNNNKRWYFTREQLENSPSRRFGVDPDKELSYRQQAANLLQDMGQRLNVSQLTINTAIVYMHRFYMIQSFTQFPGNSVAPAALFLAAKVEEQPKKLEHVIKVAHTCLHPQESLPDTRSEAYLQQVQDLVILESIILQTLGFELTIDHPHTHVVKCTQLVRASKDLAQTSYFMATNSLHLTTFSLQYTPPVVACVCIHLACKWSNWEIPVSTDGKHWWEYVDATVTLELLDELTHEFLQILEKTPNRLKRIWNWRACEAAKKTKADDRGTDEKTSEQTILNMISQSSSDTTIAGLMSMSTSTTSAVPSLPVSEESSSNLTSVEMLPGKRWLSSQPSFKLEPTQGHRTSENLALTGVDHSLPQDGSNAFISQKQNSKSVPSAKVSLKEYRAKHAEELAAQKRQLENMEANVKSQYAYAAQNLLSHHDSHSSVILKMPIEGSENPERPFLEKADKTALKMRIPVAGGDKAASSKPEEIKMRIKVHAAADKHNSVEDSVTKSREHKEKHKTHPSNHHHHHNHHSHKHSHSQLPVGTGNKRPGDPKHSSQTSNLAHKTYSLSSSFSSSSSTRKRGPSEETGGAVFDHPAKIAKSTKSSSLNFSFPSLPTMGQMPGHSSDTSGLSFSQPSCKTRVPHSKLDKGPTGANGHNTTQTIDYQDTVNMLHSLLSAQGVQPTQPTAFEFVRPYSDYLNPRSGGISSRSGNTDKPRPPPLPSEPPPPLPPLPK
Cyclin-H (Homo sapiens), sequence (P51946 whole entry): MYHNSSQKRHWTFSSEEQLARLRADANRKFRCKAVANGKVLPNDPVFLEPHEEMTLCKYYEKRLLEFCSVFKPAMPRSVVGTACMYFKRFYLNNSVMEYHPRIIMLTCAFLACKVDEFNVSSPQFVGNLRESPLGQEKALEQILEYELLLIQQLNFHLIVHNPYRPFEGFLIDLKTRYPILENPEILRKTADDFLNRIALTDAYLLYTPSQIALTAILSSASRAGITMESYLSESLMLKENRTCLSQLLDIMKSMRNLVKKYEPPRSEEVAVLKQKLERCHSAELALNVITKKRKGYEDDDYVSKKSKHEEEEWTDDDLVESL
Cyclin-dependent kinase 12 (Homo sapiens), sequence (Q9NYV4 whole entry, looked up): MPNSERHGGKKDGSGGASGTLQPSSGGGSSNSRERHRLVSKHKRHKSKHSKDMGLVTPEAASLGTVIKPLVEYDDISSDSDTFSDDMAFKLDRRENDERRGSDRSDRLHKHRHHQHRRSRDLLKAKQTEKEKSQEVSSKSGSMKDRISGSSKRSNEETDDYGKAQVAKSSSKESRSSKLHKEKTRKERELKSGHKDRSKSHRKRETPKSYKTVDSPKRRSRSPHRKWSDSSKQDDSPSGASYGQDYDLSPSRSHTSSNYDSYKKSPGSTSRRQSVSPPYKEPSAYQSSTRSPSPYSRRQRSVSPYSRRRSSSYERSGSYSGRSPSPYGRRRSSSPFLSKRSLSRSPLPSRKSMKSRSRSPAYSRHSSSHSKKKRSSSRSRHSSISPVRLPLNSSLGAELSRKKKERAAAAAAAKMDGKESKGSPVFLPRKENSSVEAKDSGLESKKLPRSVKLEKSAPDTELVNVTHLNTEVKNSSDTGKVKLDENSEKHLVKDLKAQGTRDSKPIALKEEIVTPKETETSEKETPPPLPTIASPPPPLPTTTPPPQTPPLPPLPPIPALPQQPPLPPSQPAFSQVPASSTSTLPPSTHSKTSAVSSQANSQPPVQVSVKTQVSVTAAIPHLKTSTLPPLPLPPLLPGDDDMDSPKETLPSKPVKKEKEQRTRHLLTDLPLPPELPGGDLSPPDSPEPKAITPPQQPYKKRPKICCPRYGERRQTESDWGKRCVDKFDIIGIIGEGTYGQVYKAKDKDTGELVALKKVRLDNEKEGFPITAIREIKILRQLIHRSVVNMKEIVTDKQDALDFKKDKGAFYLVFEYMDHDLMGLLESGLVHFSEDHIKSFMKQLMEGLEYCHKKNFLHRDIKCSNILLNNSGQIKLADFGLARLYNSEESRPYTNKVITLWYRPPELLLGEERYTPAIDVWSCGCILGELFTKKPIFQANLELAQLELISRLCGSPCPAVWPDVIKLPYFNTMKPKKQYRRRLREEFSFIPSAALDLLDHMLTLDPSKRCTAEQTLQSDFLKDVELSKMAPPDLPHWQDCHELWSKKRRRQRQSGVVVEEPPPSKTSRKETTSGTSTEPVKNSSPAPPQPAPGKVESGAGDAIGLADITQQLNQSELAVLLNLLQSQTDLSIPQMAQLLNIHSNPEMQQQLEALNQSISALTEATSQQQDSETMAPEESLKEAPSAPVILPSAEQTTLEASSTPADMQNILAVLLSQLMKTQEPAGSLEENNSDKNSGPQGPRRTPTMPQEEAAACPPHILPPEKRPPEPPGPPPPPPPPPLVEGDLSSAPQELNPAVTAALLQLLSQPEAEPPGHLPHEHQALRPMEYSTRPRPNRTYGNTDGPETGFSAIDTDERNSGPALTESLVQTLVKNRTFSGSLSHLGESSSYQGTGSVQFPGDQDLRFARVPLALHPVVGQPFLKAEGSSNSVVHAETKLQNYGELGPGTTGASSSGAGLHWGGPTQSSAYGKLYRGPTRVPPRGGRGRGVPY
Cyclin-C (Homo sapiens), sequence (P24863 whole entry): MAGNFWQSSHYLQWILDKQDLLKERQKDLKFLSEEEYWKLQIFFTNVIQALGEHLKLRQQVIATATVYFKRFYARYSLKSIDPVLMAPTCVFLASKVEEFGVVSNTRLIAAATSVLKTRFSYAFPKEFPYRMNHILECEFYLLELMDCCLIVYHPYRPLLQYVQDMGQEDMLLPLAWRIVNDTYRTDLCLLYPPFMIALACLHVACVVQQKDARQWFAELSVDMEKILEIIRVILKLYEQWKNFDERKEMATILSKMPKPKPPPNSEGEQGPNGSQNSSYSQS
Cyclin-C, sequence (P24863 whole entry): as above
Cyclin-dependent kinase 9 (Homo sapiens), sequence (P50750 whole entry): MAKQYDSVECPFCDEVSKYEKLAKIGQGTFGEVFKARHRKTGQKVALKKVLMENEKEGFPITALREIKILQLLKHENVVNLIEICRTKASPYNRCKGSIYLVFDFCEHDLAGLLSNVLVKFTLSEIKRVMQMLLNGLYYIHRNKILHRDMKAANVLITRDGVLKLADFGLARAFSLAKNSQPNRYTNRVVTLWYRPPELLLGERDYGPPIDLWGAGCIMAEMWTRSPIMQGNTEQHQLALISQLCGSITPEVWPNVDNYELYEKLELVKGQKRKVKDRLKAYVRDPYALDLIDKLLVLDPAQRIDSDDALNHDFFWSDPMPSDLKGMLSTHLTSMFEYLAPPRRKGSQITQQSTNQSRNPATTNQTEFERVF

O=C(Cn1cc(-c2ccc(-c3cncc4ccccc34)cc2)cn1)N1CCN(CCCC23CC4CC(CC(C4)C2)C3)CC1
Activity [1]: Active
DC50 [2]: 2.52 µM
DC50 (Cyclin-C): 2.64 µM
Activity [3]: Active
Activity [4]: inactive
Activity [5]: inactive
Activity [6]: inactive
Activity [7]: inactive
Activity [8]: Active
Activity (Cyclin-A2 (Homo sapiens)): inactive
Activity (Cyclin-H (Homo sapiens)): inactive
Activity (Cyclin-K (Homo sapiens)): inactive
Activity (Cyclin-T1 (Homo sapiens)): inactive
Activity (Cyclin-C (Homo sapiens)): Active
Activity [9]: Active
Activity [10]: Active
Activity (MDA-MB-231 [11]): Active
Activity (HCT-116): Active
inhibition (MDA-MB-468 [12]): Active
inhibition (MDA-MB-468 [13]): Active
Activity [14]: Dose-Dependent Effect
Activity [15]: inactive
Activity [16]: Active
Activity [17]: inactive
Activity [18]: Active
Activity [19]: Active
Activity [20]: Active
Activity [21]: Active
IC50 (MDA-MB-231 [22]): 6.22 µM

From ChEMBL document CHEMBL5380817, “Discovery of LL-K8-22: A Selective, Durable, and Small-Molecule Degrader of the CDK8-Cyclin C Complex” (J Med Chem, 2023)
